From the supplement of paper PMC10331698
± gives the standard deviation of the averaged measurements.

Legend:
Assay in all cases: level (log10 ratio to DMSO vehicle control); higher = higher biomarker level / cell amount than vehicle control
Conditions in all cases: in DMSO
Perfluoropropanoic acid = compound: O=C(O)C(F)(F)C(F)(F)F [Perfluoropropanoic acid]
Experimental: (§1)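 BioMAP Diversity Plus panel of 12 human primary cell co-culture systems (3C, 4H, LPS, SAg, BT, BF4T, BE3C, CASM3C, HDF3CGF, KF3CT, MyoF, Mphg). Compounds were added 1 h before stimulation and left for 24 h (MyoF 48 h; BT 72 h for soluble read-outs or 6 d for IgG). Biomarkers were read by ELISA, cytotoxicity by SRB, PBMC viability and proliferation by Alamar Blue. Each well value was divided by the mean of 8 DMSO control wells on the same plate and log10 transformed; duplicate blinded samples were tested at 4 concentrations.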

Heptafluorobutyramide = compound: NC(=O)C(F)(F)C(F)(F)C(F)(F)F [Heptafluorobutyramide]
Experimental: as §1

[1] = compound: O=C(O)C(F)(F)OC(F)(F)C(F)(F)OC(F)(F)C(=O)O [Perfluoro-3,6-dioxaoctane-1,8-dioic acid]
Experimental: as §1

[2] = compound: CCN(CCO)S(=O)(=O)C(F)(F)C(F)(F)C(F)(F)C(F)(F)C(F)(F)C(F)(F)C(F)(F)C(F)(F)F [N-Ethyl-N-(2-hydroxyethyl)perfluorooctanesulfonamide]
Experimental: as §1

[3] = compound: FC(F)(F)C(F)(C(F)(F)F)C(F)(F)C(F)(F)CC1CO1 [3-(Perfluoro-3-methylbutyl)-1,2-propenoxide]
Experimental: as §1

[4] = compound: OCCC(F)(F)C(F)(F)C(F)(F)C(F)(F)C(F)(F)C(F)(F)F [6:2 Fluorotelomer alcohol]
Experimental: as §1

Perfluoropentanoic acid = compound: O=C(O)C(F)(F)C(F)(F)C(F)(F)C(F)(F)F [Perfluoropentanoic acid]
Experimental: as §1

Row | Test System | level (log10) (Perfluoropropanoic acid; 6700 nM) | level (log10) (Perfluoropropanoic acid; 20000 nM) | level (log10) (Perfluoropropanoic acid; 60000 nM) | level (log10) (Heptafluorobutyramide; 6700 nM) | level (log10) (Heptafluorobutyramide; 20000 nM) | level (log10) (Heptafluorobutyramide; 60000 nM) | level (log10) ([1]; 6700 nM) | level (log10) ([1]; 20000 nM) | level (log10) ([1]; 60000 nM) | level (log10) ([2]; 6700 nM) | level (log10) ([2]; 20000 nM) | level (log10) ([3]; 6700 nM) | level (log10) ([3]; 20000 nM) | level (log10) ([4]; 6700 nM) | level (log10) ([4]; 20000 nM) | level (log10) (Perfluoropentanoic acid; 6700 nM) | level (log10) (Perfluoropentanoic acid; 20000 nM) | level (log10) (Perfluoropentanoic acid; 60000 nM)
1 | 4H:CD62P/P-selectin | -0.0215 ± 0.0021 | -0.012 ± 0.0042 | 0.0105 ± 0.026 | 0.002 ± 0.0099 | 0.049 ± 0.034 | 0.015 ± 0.02 | -0.004 | 0.014 ± 0.0014 | 0.0275 ± 0.013 | -0.079 ± 0.0014 | -0.142 ± 0.044 | -0.0085 ± 0.0064 | 0.0305 ± 0.012 | 0.0165 ± 0.012 | -0.004 ± 0.02 | -0.0025 ± 0.067 | -0.023 ± 0.03 | -0.0285 ± 0.043
2 | BF4T:IL-1alpha | -0.0325 ± 0.005 | 0.002 | 0.013 ± 0.03 | 0.005 ± 0.02 | -0.0045 ± 0.012 | 0.016 ± 0.0071 | -0.004 ± 0.0099 | 0.0085 ± 0.0035 | 0.006 ± 0.021 | 0.008 ± 0.016 | -0.0175 ± 0.015 | -0.016 ± 0.024 | 0.0185 ± 0.013 | -0.002 ± 0.0014 | -0.0125 ± 0.021 | -0.016 ± 0.0085 | -0.005 ± 0.0071 | 0.0155 ± 0.046
3 | BF4T:MMP-9 | -0.0065 ± 0.036 | -0.0065 ± 0.037 | 0.0035 ± 0.032 | 0.014 ± 0.017 | 0.0035 ± 0.039 | 0.011 ± 0.04 | -0.021 ± 0.0057 | -0.0135 ± 0.005 | 0.02 ± 0.017 | -0.012 ± 0.014 | -0.032 ± 0.0014 | 0.0085 ± 0.005 | -0.0125 ± 0.026 | -0.0025 ± 0.011 | -0.0105 ± 0.00071 | -0.0115 ± 0.0064 | -0.0115 ± 0.019 | -0.0005 ± 0.035
4 | 3C:CXCL9/MIG | -0.0005 ± 0.012 | 0.0025 ± 0.0064 | 0.0075 ± 0.019 | -0.004 ± 0.016 | -0.0115 ± 0.0064 | -0.0065 ± 0.0078 | 0.003 ± 0.0057 | -0.009 ± 0.0028 | 0.0095 ± 0.005 | -0.013 ± 0.0085 | -0.006 ± 0.0085 | -0.011 ± 0.0042 | -0.0025 ± 0.005 | 0.0045 ± 0.005 | -0.0145 ± 0.0035 | -0.0085 ± 0.018 | -0.0125 ± 0.03 | 0.0095 ± 0.028
5 | LPS:sPGE2 | -0.017 ± 0.05 | -0.018 ± 0.0071 | -0.011 ± 0.04 | -0.0305 ± 0.057 | 0.011 ± 0.0042 | -0.004 ± 0.0071 | -0.0045 ± 0.013 | -0.006 ± 0.011 | 0.0045 ± 0.0078 | -0.023 ± 0.023 | 0.07 ± 0.0042 | -0.012 ± 0.023 | -0.0095 ± 0.054 | -0.028 ± 0.05 | -0.0465 ± 0.039 | -0.008 ± 0.11 | -0.018 ± 0.0028 | 0.017 ± 0.011
6 | SAg:CD38 | 0.0015 ± 0.043 | 0.023 ± 0.0085 | 0.029 ± 0.055 | -0.0315 ± 0.029 | -0.03 ± 0.016 | -0.021 ± 0.021 | -0.001 | 0.0015 ± 0.0021 | 0.0055 ± 0.0021 | -0.027 ± 0.017 | -0.0955 ± 0.012 | -0.0005 ± 0.0021 | 0.015 ± 0.018 | 0.0115 ± 0.026 | -0.008 ± 0.0071 | 0.003 ± 0.017 | 0.0015 ± 0.011 | 0.002 ± 0.0057
7 | SAg:CCL2/MCP-1 | -0.0055 ± 0.036 | 0.012 ± 0.016 | 0.0145 ± 0.042 | -0.0125 ± 0.015 | -0.011 ± 0.0099 | 0.0085 ± 0.037 | 0.0065 ± 0.0035 | -0.0145 ± 0.00071 | -0.0095 ± 0.0064 | -0.0055 ± 0.005 | -0.091 ± 0.023 | -0.0225 ± 0.039 | 0.004 ± 0.0085 | -0.0165 ± 0.0035 | -0.0115 ± 0.00071 | 0.0085 ± 0.021 | -0.0205 ± 0.011 | 0.023 ± 0.031
8 | BT:sIL-2 | 0.046 ± 0.016 | -0.0205 ± 0.064 | -0.007 ± 0.1 | 0.068 ± 0.017 | -0.041 ± 0.059 | 0.0165 ± 0.0092 | 0.004 ± 0.027 | -0.017 ± 0.05 | -0.002 ± 0.041 | -0.046 ± 0.03 | -0.339 ± 0.076 | -0.0405 ± 0.042 | 0.071 ± 0.072 | -0.008 ± 0.057 | -0.0135 ± 0.019 | -0.0115 ± 0.17 | 0.0385 ± 0.00071 | 0.0385 ± 0.0078
9 | SAg:SRB | -0.01 ± 0.0028 | -0.014 ± 0.0042 | -0.0035 ± 0.00071 | -0.018 ± 0.025 | -0.0125 ± 0.011 | -0.0095 ± 0.018 | 0.007 ± 0.013 | 0.0005 ± 0.0064 | 0.0045 ± 0.00071 | -0.046 ± 0.0057 | -0.118 ± 0.024 | -0.006 ± 0.023 | -0.0025 ± 0.0021 | -0.003 ± 0.027 | 0 ± 0.02 | -0.007 ± 0.0099 | -0.0035 ± 0.00071 | 0.0055 ± 0.015
10 | 4H:CD87/uPAR | -0.0325 ± 0.025 | -0.014 ± 0.011 | 0.0085 ± 0.016 | 0.048 ± 0.014 | 0.031 ± 0.0014 | 0.0315 ± 0.0092 | -0.0095 ± 0.032 | -0.009 ± 0.037 | 0.001 ± 0.011 | -0.037 ± 0.037 | -0.088 ± 0.024 | -0.005 ± 0.027 | 0.0075 ± 0.04 | -0.002 ± 0.033 | 0.001 ± 0.033 | -0.0435 ± 0.035 | -0.0355 ± 0.005 | -0.055 ± 0.0028
11 | SAg:CD40 | -0.045 ± 0.016 | -0.0335 ± 0.044 | -0.009 ± 0.031 | -0.031 ± 0.042 | -0.039 ± 0.042 | -0.034 ± 0.068 | 0.015 ± 0.0028 | 0.01 ± 0.0057 | -0.008 ± 0.013 | 0 ± 0.028 | -0.052 ± 0.023 | -0.018 ± 0.025 | -0.0205 ± 0.039 | -0.003 ± 0.0085 | 0.0005 ± 0.0021 | 0.0105 ± 0.005 | 0.0025 ± 0.0064 | -0.001 ± 0.025
12 | BF4T:uPA | -0.0035 ± 0.033 | 0.0105 ± 0.037 | 0.019 ± 0.033 | -0.0045 ± 0.03 | -0.006 ± 0.013 | -0.006 ± 0.014 | -0.007 ± 0.013 | -0.015 ± 0.0028 | 0.0035 ± 0.03 | 0.008 ± 0.0028 | 0.0055 ± 0.012 | -0.0115 ± 0.0078 | -0.0325 ± 0.0078 | -0.0185 ± 0.012 | -0.006 ± 0.011 | -0.0315 ± 0.029 | -0.031 ± 0.023 | -0.0175 ± 0.033
13 | 4H:VEGFR2 | -0.0375 ± 0.026 | -0.011 ± 0.04 | 0.049 ± 0.042 | 0.018 ± 0.024 | 0.01 | 0.0075 ± 0.029 | -0.045 ± 0.016 | -0.06 ± 0.011 | -0.016 ± 0.047 | 0.0365 ± 0.0092 | 0.002 ± 0.0042 | -0.001 ± 0.014 | 0.0245 ± 0.026 | -0.058 ± 0.024 | -0.072 ± 0.078 | 0.0065 ± 0.056 | 0.0025 ± 0.013 | 0.008 ± 0.025
14 | LPS:IL-1alpha | -0.047 ± 0.033 | -0.0405 ± 0.037 | -0.0165 ± 0.032 | -0.014 ± 0.018 | -0.0125 ± 0.0035 | 0.013 ± 0.054 | -0.032 ± 0.013 | -0.0125 ± 0.013 | 0.0195 ± 0.049 | -0.098 ± 0.013 | -0.141 ± 0.026 | -0.0205 ± 0.011 | 0.0155 ± 0.0092 | 0 ± 0.045 | -0.011 ± 0.016 | -0.0005 ± 0.00071 | -0.0115 ± 0.012 | -0.021 ± 0.017
15 | BF4T:Keratin 8/18 | -0.032 ± 0.0028 | -0.004 ± 0.0014 | 0.027 ± 0.016 | -0.0015 ± 0.03 | 0.0065 ± 0.026 | 0.0055 ± 0.057 | -0.0075 ± 0.022 | -0.008 ± 0.0014 | 0.0025 ± 0.019 | -0.002 ± 0.0014 | -0.0005 ± 0.0021 | 0.01 ± 0.023 | -0.002 ± 0.035 | 0.0035 ± 0.0035 | 0.005 ± 0.0042 | 0.0055 ± 0.0064 | -0.002 ± 0.0085 | 0.0055 ± 0.03
16 | BF4T:SRB | -0.002 ± 0.0028 | -0.0025 ± 0.0064 | -0.0055 ± 0.0064 | -0.01 ± 0.0085 | -0.0075 ± 0.00071 | -0.005 ± 0.0099 | -0.0115 ± 0.00071 | -0.014 ± 0.0014 | 0.003 ± 0.018 | -0.016 ± 0.0071 | -0.027 ± 0.018 | 0.0015 ± 0.0035 | -0.0035 ± 0.00071 | -0.0065 ± 0.005 | -0.0055 ± 0.0078 | -0.011 ± 0.0085 | -0.008 ± 0.0071 | 0.001 ± 0.0099
